Experimental data from ChEMBL document CHEMBL1156297, “Sulfonamide linked neoglycoconjugates--a new class of inhibitors for cancer-associated carbonic anhydrases” (J Med Chem, 2010).

Key:
Carbonic anhydrase 12 = Carbonic anhydrase 12 (Homo sapiens, UniProt O43570)
Carbonic anhydrase 1 = Carbonic anhydrase 1 (Homo sapiens, UniProt P00915)
Carbonic anhydrase 2 = Carbonic anhydrase 2 (Homo sapiens, UniProt P00918)
Carbonic anhydrase 9 = Carbonic anhydrase 9 (Homo sapiens, UniProt Q16790)
[1] = Permeability by PAMPA; format: ADME; details: read-out: permeability

Carbonic anhydrase 12, sequence (O43570 whole entry): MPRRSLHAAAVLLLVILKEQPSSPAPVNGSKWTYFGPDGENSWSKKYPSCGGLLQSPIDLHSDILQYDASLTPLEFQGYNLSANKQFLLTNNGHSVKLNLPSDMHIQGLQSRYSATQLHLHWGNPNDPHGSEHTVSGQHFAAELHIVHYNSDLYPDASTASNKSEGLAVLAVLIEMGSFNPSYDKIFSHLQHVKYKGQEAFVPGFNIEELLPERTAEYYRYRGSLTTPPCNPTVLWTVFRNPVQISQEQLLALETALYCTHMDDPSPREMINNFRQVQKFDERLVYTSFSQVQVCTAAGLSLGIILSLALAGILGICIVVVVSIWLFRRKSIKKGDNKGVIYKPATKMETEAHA
Carbonic anhydrase 1, sequence (P00915 whole entry): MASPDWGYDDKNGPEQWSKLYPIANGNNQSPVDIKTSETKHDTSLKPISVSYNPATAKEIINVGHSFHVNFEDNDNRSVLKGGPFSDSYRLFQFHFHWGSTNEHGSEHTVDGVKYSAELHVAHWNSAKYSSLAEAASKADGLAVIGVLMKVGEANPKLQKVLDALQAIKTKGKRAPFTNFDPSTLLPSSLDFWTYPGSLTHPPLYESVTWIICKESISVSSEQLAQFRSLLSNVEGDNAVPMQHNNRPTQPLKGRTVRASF

| SMILES | Ki (Carbonic anhydrase 12) [nM] | Ki (Carbonic anhydrase 1) [nM] | Ki (Carbonic anhydrase 2) [nM] | Papp [1] [×10⁻⁶ cm/s] | Ki (Carbonic anhydrase 9) [nM] |
| --- | --- | --- | --- | --- | --- |
| NS(=O)(=O)c1ccc(CNS(=O)(=O)[C@@H]2O[C@H](C(=O)O)[C@H](O)[C@H](O)[C@H]2O)cc1 | 8.9 | 81 | 7.1 |  | 97 |
| CC(=O)OC[C@H]1O[C@@H](SNCc2ccc(S(N)(=O)=O)cc2)[C@H](OC(C)=O)[C@@H](OC(C)=O)[C@@H]1OC(C)=O | 11.5 | 4160 | 14.8 |  |  |
| COC(=O)[C@H]1O[C@@H](S(=O)(=O)NCCc2ccc(S(N)(=O)=O)cc2)[C@H](OC(C)=O)[C@@H](OC(C)=O)[C@H]1OC(C)=O | 9.7 | 3210 | 62.7 |  | 95 |
| NS(=O)(=O)c1ccc(CCNS(=O)(=O)[C@@H]2O[C@H](C(=O)O)[C@H](O)[C@H](O)[C@H]2O)cc1 | 9.5 | 97 | 4.7 |  | 96 |
| NS(=O)(=O)c1ccc(CCNS(=O)(=O)[C@@H]2O[C@H](CO)[C@@H](O[C@@H]3O[C@H](CO)[C@H](O)[C@H](O)[C@H]3O)[C@H](O)[C@H]2O)cc1 | 9.1 | 78 | 4.6 |  | 100 |
| NS(=O)(=O)c1ccc(CCNS(=O)(=O)[C@@H]2O[C@H](CO)[C@@H](O[C@H]3O[C@H](CO)[C@@H](O)[C@H](O)[C@H]3O)[C@H](O)[C@H]2O)cc1 | 7.3 | 102 | 5.2 |  | 81 |
| CC(=O)OC[C@H]1O[C@@H](O[C@H]2[C@H](OC(C)=O)[C@@H](OC(C)=O)[C@H](SNCc3ccc(S(N)(=O)=O)cc3)O[C@@H]2COC(C)=O)[C@H](OC(C)=O)[C@@H](OC(C)=O)[C@H]1OC(C)=O | 9.8 | 6830 | 15.5 |  |  |
| CC(=O)OC[C@H]1O[C@@H](SNCCc2ccc(S(N)(=O)=O)cc2)[C@H](OC(C)=O)[C@@H](OC(C)=O)[C@@H]1OC(C)=O | 13.6 | 3890 | 14.5 |  | 97 |
| CC(=O)OC[C@H]1O[C@@H](SNCCc2ccc(S(N)(=O)=O)cc2)[C@H](OC(C)=O)[C@@H](OC(C)=O)[C@H]1OC(C)=O | 16.7 | 4100 | 13.3 |  | 107 |
| COC(=O)[C@H]1O[C@@H](SNCCc2ccc(S(N)(=O)=O)cc2)[C@H](OC(C)=O)[C@@H](OC(C)=O)[C@H]1OC(C)=O | 9.5 | 110 | 16.2 |  |  |
| CC(=O)OC[C@H]1O[C@@H](O[C@H]2[C@H](OC(C)=O)[C@@H](OC(C)=O)[C@H](S(=O)(=O)NCc3ccc(S(N)(=O)=O)cc3)O[C@@H]2COC(C)=O)[C@H](OC(C)=O)[C@@H](OC(C)=O)[C@H]1OC(C)=O | 10.4 | 4930 | 58.8 |  |  |
| CC(=O)OC[C@H]1O[C@@H](SNCc2ccc(S(N)(=O)=O)cc2)[C@H](OC(C)=O)[C@@H](OC(C)=O)[C@H]1OC(C)=O | 15.5 | 120 | 13.4 |  |  |
| COC(=O)[C@H]1O[C@@H](SNCc2ccc(S(N)(=O)=O)cc2)[C@H](OC(C)=O)[C@@H](OC(C)=O)[C@H]1OC(C)=O | 15.6 | 110 | 18.1 |  | 102 |
| CC(=O)OC[C@H]1O[C@@H](O[C@H]2[C@H](OC(C)=O)[C@@H](OC(C)=O)[C@H](S(=O)(=O)NCCc3ccc(S(N)(=O)=O)cc3)O[C@@H]2COC(C)=O)[C@H](OC(C)=O)[C@@H](OC(C)=O)[C@H]1OC(C)=O | 9.5 | 3460 | 56.2 |  | 97 |
| CC(=O)OC[C@H]1O[C@@H](S(=O)(=O)NCCc2ccc(S(N)(=O)=O)cc2)[C@H](OC(C)=O)[C@@H](OC(C)=O)[C@@H]1O[C@H]1O[C@H](COC(C)=O)[C@@H](OC(C)=O)[C@H](OC(C)=O)[C@H]1OC(C)=O | 8.8 | 5570 | 15.2 |  | 93 |
| CC(=O)OC[C@H]1O[C@@H](S(=O)(=O)NCc2ccc(S(N)(=O)=O)cc2)[C@H](OC(C)=O)[C@@H](OC(C)=O)[C@H]1OC(C)=O | 9.9 | 110 | 16.3 |  |  |
| COC(=O)[C@H]1O[C@@H](S(=O)(=O)NCc2ccc(S(N)(=O)=O)cc2)[C@H](OC(C)=O)[C@@H](OC(C)=O)[C@H]1OC(C)=O | 9.8 | 2400 | 65.8 |  |  |
| CC(=O)Nc1nnc(S(N)(=O)=O)s1 [ACETAZOLAMIDE] |  |  |  | < 0.15 |  |

The remaining compounds from weak to strong by Ki (Carbonic anhydrase 12), led by results:

| Ki (Carbonic anhydrase 12) [nM] | Ki (Carbonic anhydrase 1) [nM] | Ki (Carbonic anhydrase 2) [nM] | Papp [1] [×10⁻⁶ cm/s] | SMILES | Ki (Carbonic anhydrase 9) [nM] |
| --- | --- | --- | --- | --- | --- |
| 9.5 | 90 | 15.4 |  | CC(=O)OC[C@H]1O[C@@H](S(=O)(=O)NCCc2ccc(S(N)(=O)=O)cc2)[C@H](OC(C)=O)[C@@H](OC(C)=O)[C@@H]1OC(C)=O |  |
| 9.4 | 4710 | 73.8 |  | CC(=O)OC[C@H]1O[C@@H](S(=O)(=O)NCCc2ccc(S(N)(=O)=O)cc2)[C@H](OC(C)=O)[C@@H](OC(C)=O)[C@H]1OC(C)=O |  |
| 9.3 | 120 | 14.8 | < 0.05 | CC(=O)OC[C@H]1O[C@@H](S(=O)(=O)NCc2ccc(S(N)(=O)=O)cc2)[C@H](OC(C)=O)[C@@H](OC(C)=O)[C@@H]1OC(C)=O |  |
| 9.1 | 2040 | 62.5 |  | CC(=O)OC[C@H]1O[C@@H](S(=O)(=O)NCc2ccc(S(N)(=O)=O)cc2)[C@H](OC(C)=O)[C@@H](OC(C)=O)[C@@H]1O[C@H]1O[C@H](COC(C)=O)[C@@H](OC(C)=O)[C@H](OC(C)=O)[C@H]1OC(C)=O |  |
| 8.9 | 107 | 5 |  | NS(=O)(=O)c1ccc(CNS(=O)(=O)[C@@H]2O[C@H](CO)[C@@H](O[C@@H]3O[C@H](CO)[C@H](O)[C@H](O)[C@H]3O)[C@H](O)[C@H]2O)cc1 | 106 |
| 8.8 | 6750 | 15.1 |  | CC(=O)OC[C@H]1O[C@@H](SNCCc2ccc(S(N)(=O)=O)cc2)[C@H](OC(C)=O)[C@@H](OC(C)=O)[C@@H]1O[C@H]1O[C@H](COC(C)=O)[C@@H](OC(C)=O)[C@H](OC(C)=O)[C@H]1OC(C)=O | 94 |
| 8.7 | 87 | 7.8 |  | NS(=O)(=O)c1ccc(CNS(=O)(=O)[C@@H]2O[C@H](CO)[C@H](O)[C@H](O)[C@H]2O)cc1 |  |
| 8.7 | 8040 | 12 |  | CC(=O)OC[C@H]1O[C@@H](O[C@H]2[C@H](OC(C)=O)[C@@H](OC(C)=O)[C@H](SNCCc3ccc(S(N)(=O)=O)cc3)O[C@@H]2COC(C)=O)[C@H](OC(C)=O)[C@@H](OC(C)=O)[C@H]1OC(C)=O | 97 |
| 8.5 | 3460 | 13.1 |  | CC(=O)OC[C@H]1O[C@@H](SNCc2ccc(S(N)(=O)=O)cc2)[C@H](OC(C)=O)[C@@H](OC(C)=O)[C@@H]1O[C@H]1O[C@H](COC(C)=O)[C@@H](OC(C)=O)[C@H](OC(C)=O)[C@H]1OC(C)=O |  |
| 8.3 | 102 | 9.1 | < 0.05 | NS(=O)(=O)c1ccc(CNS(=O)(=O)[C@@H]2O[C@H](CO)[C@@H](O)[C@H](O)[C@H]2O)cc1 |  |
| 8.2 | 101 | 4.8 |  | NS(=O)(=O)c1ccc(CNS(=O)(=O)[C@@H]2O[C@H](CO)[C@@H](O[C@H]3O[C@H](CO)[C@@H](O)[C@H](O)[C@H]3O)[C@H](O)[C@H]2O)cc1 | 98 |
| 7.8 | 82 | 7.6 |  | NS(=O)(=O)c1ccc(CCNS(=O)(=O)[C@@H]2O[C@H](CO)[C@H](O)[C@H](O)[C@H]2O)cc1 | 100 |
| 7.6 | 88 | 7.8 |  | NS(=O)(=O)c1ccc(CCNS(=O)(=O)[C@@H]2O[C@H](CO)[C@@H](O)[C@H](O)[C@H]2O)cc1 | 84 |
